This note sets out measurements from publication PMC8844858, “Crystal structure and functional analysis of mycobacterial erythromycin resistance methyltransferase Erm38 reveals its RNA-binding site” (The Journal of Biological Chemistry, 2022).

Where two headings read alike, the source gives them in different places.

The target of this assay is T1, Erm38 (Mycolicibacterium smegmatis, UniProt Q79N53).
T1 construct: gene erm(38); truncated, residues 13-261 of 386 (disordered termini removed), about 30 kDa; synthetic codon-optimised gene in pNIC28-Bsa4, E. coli BL21(DE3)-T1R Rosetta; IMAC, cation exchange and size exclusion
Conditions: 2.25 A, SAM-binding site.

T1 sequence (Q79N53 entry or part of it): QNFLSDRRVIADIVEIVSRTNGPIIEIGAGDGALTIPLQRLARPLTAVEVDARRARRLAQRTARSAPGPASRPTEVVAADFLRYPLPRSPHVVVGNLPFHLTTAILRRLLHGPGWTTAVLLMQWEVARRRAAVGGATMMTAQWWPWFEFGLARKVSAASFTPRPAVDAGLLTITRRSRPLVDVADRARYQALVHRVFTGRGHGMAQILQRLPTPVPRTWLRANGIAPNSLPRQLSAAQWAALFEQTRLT

Consider `Nc1ncnc2c1ncn2[C@@H]1O[C@H](C[C@@H](N)CC[C@H](N)C(=O)O)[C@@H](O)[C@H]1O` [SFG, sinefungin], for which the “X-ray crystal structure (soak)” value (2 mM sinefungin soaked 24 h into native crystals) is “cocrystals with either SAM or the isosteric sinefungin inhibitor were obtained by soaking”.

In the case of `C[S+](CC[C@H](N)C(=O)O)C[C@H]1O[C@@H](n2cnc3c(N)ncnc32)[C@H](O)[C@@H]1O` (some centres unmarked) [SAM], the “X-ray crystal structure (soak)” value (2 mM SAM soaked 24 h into native crystals) was “cocrystals with either SAM or the isosteric sinefungin inhibitor were obtained by soaking”.
